One experiment concerns C. formosanus. Description: ARS bait matrix bioassay with NHA sodium salt, protocol of Example 1 (Example 2). The class given is in vivo, Coptotermes formosanus. The conditions noted are these: concentrations greater than 500 and up to 1500 ppm; also effective. The procedure: For bait matrices with a final concentrations of NHA sodium salt of either 250 ppm or 500 ppm, the following procedure was used. A total of 25 mg or 50 mg, respectively of the NHA sodium salt was weighed using a Mettler balance. The NHA sodium salt complex was placed into a 50 ml sterile screw cap conical tube (#62.547.004; Sarstedt, Newton, N.C.) and dissolved with 40 ml nutritive solution described in Example 2 of U.S. patent application Ser. No. 09/294,499 filed Apr. 20, 1999, hereby incorporated by reference. Under a laminar flow hood, this product was mixed with 27 ml more of sterile nutritional supplement in a 250 ml sterile glass bottle (prepared as reported by M. G. Rojas and J. A. Morales-Ramos, April 2001, “Bait matrix for delivery of chitin synthesis inhibitors to the Formosan subterranean termite [Isoptera: Rhinotermitidae],” J. Econ. Entomol. 94(2) :506-510) hereby incorporated by reference. The bottle was tightly closed with a screw cap and manually shaken for 2 minutes. The mixture was added to 33 g of sterile cellulose as reported by Rojas and Morales-Ramos (2001) supra. The mixture was manually homogenized using a stainless steel spatula. To encase the bait matrix, tubes made of fibrous casing material (#124B; L.E.M. Products, Inc., Miamitown, Ohio) were cut into 150 mm long portions as reported by Rojas and Morales-Ramos (2001) supra. Fifty grams of bait matrix containing NHA sodium salt was compacted into one end of the inlet tube, and the open end and of the inlet tube was closed with a rubber band. The bait casing was placed inside of the foraging box adjacent to a 10 g piece of pine wood, taking care that it was partially covered with sand. Control bait matrix was prepared minus NHA, and presented in the same way as the treatment matrix to Formosan termites taken from three different colonies, with two boxes per locality totaling six boxes of 2500 termites per treatment. (Rojas and Morales-Ramos [2001] supra). All the experimental boxes were maintained under dark conditions at 27±1° C., and 90±2% relative humidity. Observations were done every 72 hours until all the termites died. The time to reach 100% mortality was measured and recorded. Mean comparisons among treatments and control were conducted.
N-hydroxynaphthyalimide (NHA) which is commercially available as pure chemical, is dissolved in distilled water using a sterile container; At concentrations of 500 ppm, NHA is effective as bait active ingredient taking a mean time to kill C. formosanus in 2½ months in lab conditions. […]

Experiment [1] has as its system Formosan subterranean termite. The experiment can be described thus: Field test of NHA pressure treated aspen wood in bait stations, New Orleans. Format: in vivo, Coptotermes formosanus. The text has this: NHA as a wood preservative has been extensively studied (F. Green III, T. A. Kuster, L. Ferge, and T. L. Highley, 1997. Protection of southern pine from fungal decay and termite damage with N,N-Naphthaloylhydroxylamine. Inter. Biodeter. and Biodeg. 39(2-3):103-111; D. M. Crawford and F. Green III, 1999. Protection of southern pine using N,N-Naphthaloylhydroxylamine: Field tests, soft-rot cellars and aquatic bioassay leach testing. Internat. Res. Group on Wood Preserv. Doc. No: IRG/WP 99-30204). Monitoring termite activity in baiting systems is conducted by the use of wooden interceptors constructed from out of aspen, southern yellow pine, white or yellow poplar. In humid environments such as the Southeastern United States, a problem with degradations of such interceptors by fungi frequently occurs. We have noticed that low concentrations of NHA from 200 to 1000 ppm is acceptable to retard fungal growth without presenting any deleterious effect in the termites when incorporated into wooden materials. For bait efficacy, when the chemical is impregnated on pieces of wood the concentration that is retained varies as well as the efficacy. […]

The source of these data is patent publication USRE44543E1, “Naphthalenic compounds as termite bait toxicants” (priority 2002, dated 2013).

Structures are written as SMILES.

Consider `O=C1c2cccc3cccc(c23)C(=O)N1O` [NHA, N-hydroxynaphthalimide], for which the “mean killing times versus 500 ppm” value in the experiment on C. formosanus was “not significantly different”. Besides, in experiment [1], the “optimal NHA concentration after field testing” value is recorded as 500 ppm.
